Values quoted from earlier work in patent publication US20250144071A1, “METHOD FOR PRODUCING ELLAGIC ACID-CONTAINING COMPOSITION AND ELLAGIC ACID-CONTAINING COMPOSITION” (SUMITOMO CHEMICAL COMPANY, LIMITED, priority 2022, published 2025).

Solubility of ellagic acid in water: about 20 μg/mL
Compound: O=c1oc2c(O)c(O)cc3c(=O)oc4c(O)c(O)cc1c4c23 [ellagic acid]
